Several values for one entry are separate records, joined by “and”; a condition that tells them apart may be missing. Equal entries are not always repeated. Inconclusive results and toxic doses are left out.
Test system: L1210 leukemia ip in BDF1 mice, survival T/C
Test: NCI In Vivo Anticancer Drug Screen. Data for tumor model L1210 Leukemia (intraperitoneal) in B6D2F1 (BDF1) mice
Conditions: endpoint: mean survival time, higher = longer survival
Summary of the method: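 Mice bearing the transplanted tumor received compound or vehicle. Survival of the treated group was divided by that of the vehicle-treated control group to give the ratio.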

[1] = dose: 50.0 mg/kg/injection, schedule: Q01DX009 (ip), vehicle: saline
[2] = dose: 100.0 mg/kg/injection, schedule: Q01DX009 (ip), vehicle: saline
[3] = dose: 200.0 mg/kg/injection, schedule: Q01DX009 (ip), vehicle: saline
[4] = dose: 25.0 mg/kg/injection, schedule: Q04DX002 (ip), vehicle: Klucel (hydroxypropylcellulose) (HPC)
[5] = dose: 50.0 mg/kg/injection, schedule: Q04DX002 (ip), vehicle: Klucel (hydroxypropylcellulose) (HPC)
[6] = dose: 100.0 mg/kg/injection, schedule: Q01DX001 (ip), vehicle: saline
[7] = dose: 200.0 mg/kg/injection, schedule: Q01DX001 (ip), vehicle: saline
[8] = dose: 400.0 mg/kg/injection, schedule: Q01DX001 (ip), vehicle: saline
[9] = dose: 100.0 mg/kg/injection, schedule: Q04DX002 (ip), vehicle: saline with Tween-80
[10] = dose: 200.0 mg/kg/injection, schedule: Q04DX002 (ip), vehicle: saline with Tween-80
[11] = dose: 400.0 mg/kg/injection, schedule: Q04DX002 (ip), vehicle: saline with Tween-80
[12] = dose: 100.0 mg/kg/injection, schedule: Q04DX003 (ip), vehicle: saline
[13] = dose: 100.0 mg/kg/injection, schedule: Q04DX003 (ip), vehicle: saline with Tween-80
[14] = dose: 200.0 mg/kg/injection, schedule: Q04DX003 (ip), vehicle: saline with Tween-80
[15] = dose: 400.0 mg/kg/injection, schedule: Q04DX003 (ip), vehicle: saline with Tween-80

## CCN(CC)CCSC(=O)c1ccccc1
[1]
  T/C: 94 % of control
[2]
  T/C: 100 % of control
[3]
  T/C: 100 % of control

## CCC(C(C)N1CC(=O)NC(=O)C1)N1CC(=O)NC(=O)C1 (stereo unspecified)
dose: 0.5 mg/kg/injection, schedule: Q01DX009 (ip), vehicle: Klucel (hydroxypropylcellulose) (HPC)
  T/C: 154 % of control
dose: 1.0 mg/kg/injection, schedule: Q04DX003 (ip), vehicle: Klucel (hydroxypropylcellulose) (HPC)
  T/C: 120 % of control
dose: 2.0 mg/kg/injection, schedule: Q01DX009 (ip), vehicle: Klucel (hydroxypropylcellulose) (HPC)
  T/C: 102 % of control
dose: 2.0 mg/kg/injection, schedule: Q04DX003 (oral), vehicle: Klucel (hydroxypropylcellulose) (HPC)
  T/C: 123 % of control
dose: 4.0 mg/kg/injection, schedule: Q01DX009 (ip), vehicle: Klucel (hydroxypropylcellulose) (HPC)
  T/C: 91 % of control
dose: 4.0 mg/kg/injection, schedule: Q04DX003 (ip), vehicle: Klucel (hydroxypropylcellulose) (HPC)
  T/C: 203 % of control
dose: 8.0 mg/kg/injection, schedule: Q04DX003 (ip), vehicle: Klucel (hydroxypropylcellulose) (HPC)
  T/C: 219 % of control
dose: 8.0 mg/kg/injection, schedule: Q04DX003 (oral), vehicle: Klucel (hydroxypropylcellulose) (HPC)
  T/C: 161 % of control
dose: 16.0 mg/kg/injection, schedule: Q04DX003 (ip), vehicle: Klucel (hydroxypropylcellulose) (HPC)
  T/C: 96 % of control
dose: 32.0 mg/kg/injection, schedule: Q04DX003 (ip), vehicle: Klucel (hydroxypropylcellulose) (HPC)
  T/C: 119 % of control
dose: 64.0 mg/kg/injection, schedule: Q04DX003 (oral), vehicle: Klucel (hydroxypropylcellulose) (HPC)
  T/C: 93 % of control

## c1cc[c]([Pb]([S]c2ccccn2)([c]2ccccc2)[c]2ccccc2)cc1
dose: 0.78 mg/kg/injection, schedule: Q01DX009 (ip), vehicle: Klucel (hydroxypropylcellulose) (HPC)
  T/C: 96 % of control
dose: 1.56 mg/kg/injection, schedule: Q01DX009 (ip), vehicle: Klucel (hydroxypropylcellulose) (HPC)
  T/C: 94 % of control
dose: 3.12 mg/kg/injection, schedule: Q01DX009 (ip), vehicle: Klucel (hydroxypropylcellulose) (HPC)
  T/C: 106 % of control and 89 % of control
[4]
  T/C: 100 % of control
[5]
  T/C: 88 % of control

## COP1(=O)OCC(C)CO1 (stereo unspecified)
[6]
  T/C: 102 % of control
[7]
  T/C: 93 % of control
[8]
  T/C: 98 % of control

## CC(NC(=O)NCCCl)c1cccc([N+](=O)[O-])c1 (stereo unspecified)
dose: 100.0 mg/kg/injection, schedule: Q04DX002 (ip), vehicle: Klucel (hydroxypropylcellulose) (HPC)
  T/C: 94 % of control
dose: 200.0 mg/kg/injection, schedule: Q04DX002 (ip), vehicle: Klucel (hydroxypropylcellulose) (HPC)
  T/C: 105 % of control
dose: 400.0 mg/kg/injection, schedule: Q04DX002 (ip), vehicle: Klucel (hydroxypropylcellulose) (HPC)
  T/C: 119 % of control

## Cc1ccc(NC(=O)Nc2cccc(Cl)c2)c(C)c1
dose: 100.0 mg/kg/injection, schedule: Q01DX009 (ip), vehicle: Klucel (hydroxypropylcellulose) (HPC)
  T/C: 86 % of control
dose: 200.0 mg/kg/injection, schedule: Q01DX009 (ip), vehicle: Klucel (hydroxypropylcellulose) (HPC)
  T/C: 94 % of control
dose: 400.0 mg/kg/injection, schedule: Q01DX009 (ip), vehicle: Klucel (hydroxypropylcellulose) (HPC)
  T/C: 87 % of control

## COc1cc(C(=O)NNC(=O)c2ccc(Cl)c(Cl)c2)cc(OC)c1OC
dose: 100.0 mg/kg/injection, schedule: Q01DX001 (ip), vehicle: saline with Tween-80
  T/C: 93 % of control
dose: 100.0 mg/kg/injection, schedule: Q01DX009 (ip), vehicle: saline with Tween-80
  T/C: 100 % of control and 89 % of control
[9]
  T/C: 93 % of control and 104 % of control
dose: 200.0 mg/kg/injection, schedule: Q01DX001 (ip), vehicle: saline with Tween-80
  T/C: 97 % of control
dose: 200.0 mg/kg/injection, schedule: Q01DX009 (ip), vehicle: saline with Tween-80
  T/C: 101 % of control and 86 % of control
[10]
  T/C: 101 % of control and 110 % of control
dose: 400.0 mg/kg/injection, schedule: Q01DX001 (ip), vehicle: saline with Tween-80
  T/C: 90 % of control
dose: 400.0 mg/kg/injection, schedule: Q01DX009 (ip), vehicle: saline with Tween-80
  T/C: 92 % of control and 97 % of control
[11]
  T/C: 102 % of control and 87 % of control

## CCC(=O)OC(CCN(C)C)(Cc1ccccc1)c1ccccc1 (stereo unspecified)
dose: 25.0 mg/kg/injection, schedule: Q01DX009 (ip), vehicle: saline
  T/C: 100 % of control
[1]
  T/C: 95 % of control
[2]
  T/C: 101 % of control
[12]
  T/C: 93 % of control

## CC(OC(=O)CF)C(C)OC(=O)CF (stereo unspecified)
dose: 0.5 mg/kg/injection, schedule: Q01DX001 (ip), vehicle: carboxymethylcellulose (CMC)
  T/C: 110 % of control
dose: 1.0 mg/kg/injection, schedule: Q01DX001 (ip), vehicle: carboxymethylcellulose (CMC)
  T/C: 94 % of control
dose: 2.0 mg/kg/injection, schedule: Q01DX001 (ip), vehicle: carboxymethylcellulose (CMC)
  T/C: 108 % of control
dose: 4.0 mg/kg/injection, schedule: Q01DX001 (ip), vehicle: carboxymethylcellulose (CMC)
  T/C: 100 % of control
dose: 8.0 mg/kg/injection, schedule: Q01DX001 (ip), vehicle: carboxymethylcellulose (CMC)
  T/C: 108 % of control

## O=C(O)c1ccc(OCCOc2ccccc2)cc1
dose: 100.0 mg/kg/injection, schedule: Q01DX009 (ip), vehicle: saline sonified
  T/C: 90 % of control
dose: 200.0 mg/kg/injection, schedule: Q01DX009 (ip), vehicle: saline sonified
  T/C: 95 % of control
dose: 200.0 mg/kg/injection, schedule: Q04DX003 (ip), vehicle: saline sonified
  T/C: 100 % of control
dose: 400.0 mg/kg/injection, schedule: Q01DX009 (ip), vehicle: saline sonified
  T/C: 93 % of control
dose: 400.0 mg/kg/injection, schedule: Q04DX003 (ip), vehicle: saline sonified
  T/C: 108 % of control

## COC1OC(COC(=O)c2ccccc2)C(OS(=O)(=O)c2ccc(C)cc2)C1OCc1ccccc1 (stereo unspecified)
dose: 50.0 mg/kg/injection, schedule: Q01DX001 (ip), vehicle: carboxymethylcellulose (CMC)
  T/C: 98 % of control
dose: 100.0 mg/kg/injection, schedule: Q01DX001 (ip), vehicle: carboxymethylcellulose (CMC)
  T/C: 93 % of control
dose: 200.0 mg/kg/injection, schedule: Q01DX001 (ip), vehicle: carboxymethylcellulose (CMC)
  T/C: 95 % of control
dose: 400.0 mg/kg/injection, schedule: Q01DX001 (ip), vehicle: carboxymethylcellulose (CMC)
  T/C: 95 % of control

## CC(C)NC(=O)Nc1cccc(Cl)c1
dose: 100.0 mg/kg/injection, schedule: Q04DX003 (ip), vehicle: gum acacia
  T/C: 96 % of control
dose: 200.0 mg/kg/injection, schedule: Q04DX003 (ip), vehicle: gum acacia
  T/C: 94 % of control
dose: 400.0 mg/kg/injection, schedule: Q04DX003 (ip), vehicle: gum acacia
  T/C: 100 % of control

## O=C(O)C(Cl)C(C(=O)O)c1ccccc1 (stereo unspecified)
[9]
  T/C: 101 % of control
[10]
  T/C: 93 % of control
[11]
  T/C: 93 % of control

## NC(N)=N/N=C(/C=N/N=C(N)N)C(O)C(O)CO (stereo unspecified)
dose: 15.0 mg/kg/injection, schedule: Q01DX Z (ip), vehicle: carboxymethylcellulose (CMC)
  T/C: 101 % of control
dose: 30.0 mg/kg/injection, schedule: Q01DX Z (ip), vehicle: carboxymethylcellulose (CMC)
  T/C: 98 % of control
[1]
  T/C: 98 % of control
dose: 60.0 mg/kg/injection, schedule: Q01DX Z (ip), vehicle: carboxymethylcellulose (CMC)
  T/C: 104 % of control
[2]
  T/C: 98 % of control
[12]
  T/C: 102 % of control
dose: 120.0 mg/kg/injection, schedule: Q01DX Z (ip), vehicle: carboxymethylcellulose (CMC)
  T/C: 101 % of control
[3]
  T/C: 95 % of control
dose: 200.0 mg/kg/injection, schedule: Q04DX003 (ip), vehicle: saline
  T/C: 94 % of control
dose: 400.0 mg/kg/injection, schedule: Q04DX003 (ip), vehicle: saline
  T/C: 100 % of control

## NC(=O)C[n+]1ccccc1
[6]
  T/C: 106 % of control
[7]
  T/C: 98 % of control
[8]
  T/C: 97 % of control

## O=C(O)c1ccc(CC2CC3CCC2C3)cc1 (stereo unspecified)
[13]
  T/C: 93 % of control
[14]
  T/C: 91 % of control
[15]
  T/C: 88 % of control

## CC([NH-])C(C)[NH-].[Cl][Pd][Cl] (stereo unspecified)
dose: 12.5 mg/kg/injection, schedule: Q04DX002 (ip), vehicle: Klucel (hydroxypropylcellulose) (HPC)
  T/C: 97 % of control
[4]
  T/C: 97 % of control
[5]
  T/C: 93 % of control
dose: 50.0 mg/kg/injection, schedule: Q04DX002 (ip), vehicle: saline with Tween-80
  T/C: 93 % of control
[9]
  T/C: 90 % of control
[10]
  T/C: 97 % of control

## C=C(C)c1c2c(Sc3ccc(C(C)(C)C)cc3)cccc2cc2cccc(Sc3ccc(C(C)(C)C)cc3)c12
[13]
  T/C: 98 % of control
[14]
  T/C: 93 % of control
[15]
  T/C: 91 % of control
